“And” between values parts separate entries of the source, which are not always exact repeats. Equal values may be shown once. Toxic doses and inconclusive results are not listed. Starred links: 1 amine or outer side, 2 acyl side, 3 side chain; linkers in the order of their positions; H or OH if unused. Positions of bridges follow the written chain, without caps; N, C: chain ends. Non-standard residues stand in square brackets, D forms with d. Residues, ends and D or L forms follow the SMILES beside them. Chains are numbered I, II in the order given. Actinocin(9to1) = Cc1c2oc3c(C)ccc(C(=O)[*:1])c3nc-2c(C(=O)[*:2])c(N)c1=O; aThr = C[C@H](O)[C@H](N)C(=O)O; NMeV = CN[C@H](C(=O)O)C(C)C; Sar = CNCC(=O)O
Test system: BDF1 mice, P288 methotrexate-resistant leukemia, survival T/C
Test: NCI In Vivo Anticancer Drug Screen. Data for tumor model P288 Lymphocytic Leukemia resistant to methotrexate; NSC 740 (intraperitoneal) in B6D2F1 (BDF1) mice
Conditions: endpoint: median survival time, schedule: Q01DX010 (ip), higher = longer survival
Description: The antitumor activity of compounds was measured in mice bearing transplantable tumors. Survival or tumor size were measured and the results are expressed as the measurement made in the treated group (T) divided by the measurement made in the vehicle treated control group (C). The tumor model used in this assay is P288 Lymphocytic Leukemia resistant to methotrexate; NSC 740 (intraperitoneal) in B6D2F1 (BDF1) mice

[1] = dose: 20.0 mg/kg/injection, vehicle: saline
[2] = dose: 8.0 mg/kg/injection, vehicle: saline
[3] = dose: 25.0 mg/kg/injection, vehicle: saline
[4] = dose: 50.0 mg/kg/injection, vehicle: saline
[5] = dose: 100.0 mg/kg/injection, vehicle: saline
[6] = dose: 200.0 mg/kg/injection, vehicle: saline

For `NC(Cc1ccc(N(CCCl)CCCl)cc1)C(=O)O` (configuration not stated), the T/C (dose: 1.0 mg/kg/injection, vehicle: other) was 160 % of control, the T/C (dose: 2.0 mg/kg/injection, vehicle: other) was 165 % of control and the T/C (dose: 4.0 mg/kg/injection, vehicle: other) was 215 % of control. For the same molecule, the T/C (dose: 5.0 mg/kg/injection, vehicle: saline) was 160 % of control, the T/C (dose: 10.0 mg/kg/injection, vehicle: saline) was 186 % of control and the T/C [1] was 105 % of control.
With `Cc1c2oc3c(C)ccc(C(=O)N[C@@H]4C(=O)N[C@H](C(C)C)C(=O)N5CCC[C@H]5C(=O)N(C)CC(=O)N(C)[C@@H](C(C)C)C(=O)O[C@H]4C)c3nc-2c(C(=O)N[C@@H]2C(=O)N[C@H](C(C)C)C(=O)N3CCC[C@H]3C(=O)N(C)CC(=O)N(C)[C@@H](C(C)C)C(=O)O[C@H]2C)c(N)c1=O` (I: [aThr][dV]P[Sar][NMeV] / II: [aThr][dV]P[Sar][NMeV]; ester I:1-I:C, II:1-II:C; linker I:N-II:N via Actinocin(9to1)) the T/C (dose: 25.0 micrograms/kg/injection, vehicle: other) was 160 % of control and the T/C (dose: 50.0 micrograms/kg/injection, vehicle: other) was 190 % of control.
With `CCCCn1cnc2c(=S)nc[nH]c21` the T/C (dose: 2.0 mg/kg/injection, vehicle: saline) was 86 % of control, the T/C (dose: 4.0 mg/kg/injection, vehicle: saline) was 86 % of control and the T/C [2] was 90 % of control.
`CN(C)/N=N/c1nc[nH]c1C(N)=O` was tested, and the T/C [3] was 100 % of control, the T/C [4] was 90 % of control and the T/C [5] was 105 % of control and 109 % of control. The T/C [6] was 90 % of control and 100 % of control.
In the case of `CCCCNc1ncnc2c1cnn2C`, the T/C (dose: 15.6 mg/kg/injection, vehicle: saline) is reported as 105 % of control, the T/C (dose: 31.3 mg/kg/injection, vehicle: saline) is reported as 110 % of control and the T/C (dose: 62.5 mg/kg/injection, vehicle: saline) is reported as 95 % of control and 110 % of control.
`O=C1C(NC(=O)C2CCCCC2)=C(N2CC2)C(=O)C(NC(=O)C2CCCCC2)=C1N1CC1` was tested, and the T/C [3] was 90 % of control and 100 % of control, the T/C [4] was 90 % of control and 100 % of control and the T/C [5] was 90 % of control and 100 % of control. For the same molecule, the T/C [6] was 100 % of control and 110 % of control.
For `c1ccc(CNc2ncnc3[nH]ncc23)cc1`, the T/C [2] was 90 % of control and 115 % of control, the T/C (dose: 16.0 mg/kg/injection, vehicle: saline) was 100 % of control and 110 % of control and the T/C (dose: 32.0 mg/kg/injection, vehicle: saline) was 100 % of control and 110 % of control. For the same molecule, the T/C (dose: 64.0 mg/kg/injection, vehicle: saline) was 110 % of control.
With `CC[C@]1(O)C[C@H]2CN(CCc3c([nH]c4ccccc34)[C@@](C(=O)OC)(c3cc4c(cc3OC)N(C=O)[C@H]3[C@@](O)(C(=O)OC)[C@H](OC(C)=O)[C@]5(CC)C=CCN6CC[C@]43[C@@H]65)C2)C1` the T/C (dose: 0.03 mg/kg/injection, vehicle: saline) was 121 % of control and 123 % of control, the T/C (dose: 0.06 mg/kg/injection, vehicle: saline) was 157 % of control and the T/C (dose: 0.12 mg/kg/injection, vehicle: saline) was 161 % of control and 162 % of control. For the same molecule, the T/C (dose: 0.25 mg/kg/injection, vehicle: saline) was 90 % of control.
For `C[C@H](N)C(=O)N[C@@H]1[C@H]2C(=C(O)C[C@@H](O)[C@@H]2O)C(=O)O[C@@H]1C`, the T/C (dose: 150.0 mg/kg/injection, vehicle: saline) was 112 % of control, the T/C (dose: 600.0 mg/kg/injection, vehicle: saline) was 150 % of control and the T/C (dose: 1200.0 mg/kg/injection, vehicle: saline) was 183 % of control.
`NC(Cc1c[nH]c2ccc(N(CCCl)CCCl)cc12)C(=O)O` (configuration not stated) was tested, and the T/C (dose: 0.5 mg/kg/injection, vehicle: saline) was 104 % of control.
In the case of `C[n+]1c2ccccc2nc2c(N)cc(N)cc21`, the T/C [2] is reported as 115 % of control.
`CN(C)c1ccc(Nc2c3ccccc3nc3ccccc23)cc1` was tested, and the T/C (dose: 36.0 mg/kg/injection, vehicle: saline) was 95 % of control and 115 % of control, the T/C (dose: 54.0 mg/kg/injection, vehicle: saline) was 115 % of control and 116 % of control and the T/C (dose: 120.0 mg/kg/injection, vehicle: saline) was 120 % of control.
In the case of `OCC1OC(n2cnc3c(=S)nc[nH]c32)C(O)C1O` (configuration not stated), the T/C [1] is reported as 100 % of control and 105 % of control, the T/C (dose: 40.0 mg/kg/injection, vehicle: saline) is reported as 95 % of control and 105 % of control and the T/C (dose: 80.0 mg/kg/injection, vehicle: saline) is reported as 100 % of control and 110 % of control. For the same molecule, the T/C (dose: 160.0 mg/kg/injection, vehicle: saline) was 100 % of control and 105 % of control.

Reference: PubChem BioAssay AID204 (DTP/NCI, 2004)
